Reference: ChEMBL document CHEMBL3763094, “Synthesis of 2-arylfuro[3,2-b]pyridines: Effect of the C2-aryl group on melatoninergic activity” (Eur J Med Chem, 2016)
pKi: −log10 of the molar value. The source made the active and inactive calls. The calls are words filed in the database; no cut-off is given here.

What was measured:
[1] = biological target: T1, Melatonin receptor type 1B (Homo sapiens) (UniProt P49286); test: Agonist activity at MT2 receptor (unknown origin) expressed in CHO cells incubated for 1 hr by [35S]GTPgammaS binding assay; format: functional, cell-based
T1 sequence (whole entry): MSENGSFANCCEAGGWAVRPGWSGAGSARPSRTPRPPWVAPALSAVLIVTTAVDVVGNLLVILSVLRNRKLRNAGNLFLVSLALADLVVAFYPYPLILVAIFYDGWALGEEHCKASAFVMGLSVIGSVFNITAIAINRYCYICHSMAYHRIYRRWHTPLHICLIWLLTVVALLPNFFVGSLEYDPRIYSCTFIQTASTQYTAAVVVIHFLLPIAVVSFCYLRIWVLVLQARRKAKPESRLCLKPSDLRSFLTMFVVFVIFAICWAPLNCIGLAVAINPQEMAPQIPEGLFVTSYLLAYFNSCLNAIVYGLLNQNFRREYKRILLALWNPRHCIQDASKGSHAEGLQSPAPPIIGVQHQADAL

Homo sapiens = organism: Homo sapiens; test: Selectivity ratio of Ki for human MT1 receptor to Ki for human MT2 receptor
[2] = biological target: T2, Melatonin receptor type 1A (Homo sapiens, UniProt P48039); test: Displacement of [125I]2-Iodomelatonin from human MT1 receptor expressed in HEK293 cells after 120 mins by radioligand competition assay; format: cell-based
[3] = biological target: T2, Melatonin receptor type 1A; test: Agonist activity at MT1 receptor (unknown origin) expressed in CHO cells incubated for 1 hr by [35S]GTPgammaS binding assay; format: functional, cell-based
[4] = biological target: T3, Melatonin receptor type 1B (Homo sapiens, UniProt P49286); test: Displacement of [125I]2-Iodomelatonin from human MT2 receptor expressed in HEK293 cells after 120 mins by radioligand competition assay; format: cell-based
T3 sequence (P49286 whole entry): T1 sequence (whole entry)

[5] = biological target: T1, Melatonin receptor type 1B (Homo sapiens); test: Antagonist activity at MT2 receptor (unknown origin) expressed in CHO cells assessed as inhibition of melatonin-induced response for 30 mins by [35S]GTPgammaS binding assay; format: functional, cell-based
[6] = biological target: T2, Melatonin receptor type 1A; test: Partial agonist activity at MT1 receptor (unknown origin) expressed in CHO cells incubated for 1 hr by [35S]GTPgammaS binding assay; format: functional, cell-based
[7] = biological target: T2, Melatonin receptor type 1A; test: Antagonist activity at MT1 receptor (unknown origin) expressed in CHO cells assessed as inhibition of melatonin-induced response for 30 mins by [35S]GTPgammaS binding assay; format: functional, cell-based
[8] = biological target: T1, Melatonin receptor type 1B (Homo sapiens); test: Partial agonist activity at MT2 receptor (unknown origin) expressed in CHO cells incubated for 1 hr by [35S]GTPgammaS binding assay; format: functional, cell-based

T2 sequence (P48039 whole entry): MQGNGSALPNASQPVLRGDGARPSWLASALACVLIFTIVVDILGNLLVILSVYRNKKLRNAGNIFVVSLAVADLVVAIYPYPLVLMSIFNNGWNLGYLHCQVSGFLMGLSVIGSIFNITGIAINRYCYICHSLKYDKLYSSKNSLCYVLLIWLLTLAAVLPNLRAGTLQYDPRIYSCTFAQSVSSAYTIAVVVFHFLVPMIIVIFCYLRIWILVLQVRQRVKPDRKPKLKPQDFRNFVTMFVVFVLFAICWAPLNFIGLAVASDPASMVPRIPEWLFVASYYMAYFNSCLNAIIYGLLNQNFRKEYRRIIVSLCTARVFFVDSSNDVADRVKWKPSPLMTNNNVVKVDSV

Row | Compound | Activity [1] | Ratio Ki (Homo sapiens) | pKi [2] | Activity [3] | pKi [4] | Activity [5] | Activity [6] | Activity [7] | Activity [8]
1 | COc1ccc2oc(I)c(CCNC(C)=O)c2n1 | Active | 2.5 | 9.70 | Active | 10.10 | – | – | – | –
2 | COc1ccc2oc(-c3cc4ccccc4c4ccccc34)c(CCNC(C)=O)c2n1 | – | 13.6 | 7.17 | – | 8.30 | Active | Active | – | –
3 | COc1ccc2oc(-c3cccc4ccccc34)c(CCNC(C)=O)c2n1 | – | 152 | 6.70 | – | 8.89 | Active | – | Active | –
4 | CCC(=O)NCCCc1cc(OC)ccc1OCc1cccc(OC)c1 | – | 790 | – | – | – | – | – | – | –
5 | COc1ccc2oc(-c3ccccc3)c(CCNC(C)=O)c2n1 | Active | 0.3 | 10.40 | Active | 9.85 | – | – | – | –
6 | COc1ccc2oc(-c3ccc(F)cc3)c(CCNC(C)=O)c2n1 | Active | 6.7 | 9.70 | Active | 10.52 | – | – | – | –
7 | COc1ccc2[nH]cc(CCNC(C)=O)c2n1 | – | 0.7 | – | – | – | – | – | – | –
8 | COc1ccc2occ(CCNC(C)=O)c2n1 | Active | 1.5 | 8.80 | Active | 8.92 | – | – | – | –
9 | COc1ccc2oc(-c3ccc4ccccc4c3)c(CCNC(C)=O)c2n1 | – | 22.2 | 8.66 | Active | 10.05 | Active | – | – | –
10 | COc1ccc2oc(-c3c4ccccc4cc4ccccc34)c(CCNC(C)=O)c2n1 | – | 6.2 | 7.51 | – | 8.30 | Active | Active | – | –
11 | COc1cc2c(CCNC(C)=O)coc2cn1 | – | 1.2 | 7.14 | – | 7.23 | – | – | – | –
12 | COc1cc2c(CCNC(C)=O)c[nH]c2cn1 | – | 0.3 | 8.02 | – | 7.46 | – | – | – | –
13 | COc1ccc2oc(-c3c(C)cccc3C)c(CCNC(C)=O)c2n1 | – | 13.3 | 6.92 | – | 8.05 | – | – | Active | Active
